In publication PMC5387044, “Analogs of the Frog-skin Antimicrobial Peptide Temporin 1Tb Exhibit a Wider Spectrum of Activity and a Stronger Antibiofilm Potential as Compared to the Parental Peptide” (Frontiers in Chemistry, 2017):
pIC50: −log10 of the molar value. Marks after values point to notes of the source that are not given here. No end group written: not given here.

Experiments:
S. aureus ATCC 33591 [1] = conditions: for MIC: ATCC 33591, 24 h
[2] = tested on: preformed biofilms of S. aureus ATCC 33591; assay: Biofilm treatment assay on preformed (24-h old) biofilms, CFU counting, alone and with EDTA; format: cell-based, Staphylococcus aureus; conditions: 30 μM peptide alone
Method: The activity of TB, TB_L1FK, and TB_KKG6A against preformed (24-h old) biofilms of S. aureus and P. aeruginosa was also investigated. Briefly, biofilms were allowed to form for 24 h in flat-bottom 96-well microplates in the absence of antimicrobial compounds. Established biofilms were then washed three times with PBS in order to remove non-adherent cells and incubated in fresh BPM with different concentrations of the three peptides (from 15 to 120 μM). After 24 h of incubation, the viability of biofilm-associated cells was evaluated by CFU counting. For this purpose, biofilms were washed three times with PBS and bacterial cells were detached from the surface of the wells with a pipette tip, vigorously vortexed and plated in serial dilutions on TSA.
TB_L1FK and TB_KKG6A were combined with EDTA in order to enhance their activity against preformed biofilms of S. aureus and P. aeruginosa. […] Following incubation, the antibiofilm effect was evaluated in terms of number of biofilm-associated viable cells as previously described.
Figure 4 Activity of TB_L1FK and TB_KKG6A, used alone and in combination with EDTA, against preformed (24-h old) biofilms of S. aureus ATCC 33591 (A,B) and P. aeruginosa ATCC 27853 (C,D). The antibiofilm activity of the peptides, EDTA and the peptide-EDTA combinations was evaluated by CFU counting after 24 h of incubation. […]

[3] = tested on: human non-small-cell lung adenocarcinoma A549 cells; conditions: 24 h
S. aureus ATCC 33591 [4] = conditions: ATCC 33591, 24 h, pH 7.4
P. aeruginosa ATCC 27853 [5] = conditions: ATCC 27853, 24 h, pH 7.4
[6] = tested on: S. aureus ATCC 33591 biofilm formation; format: cell-based, Staphylococcus aureus
[7] = tested on: human peripheral blood mononuclear cells (PBMCs); conditions: 24 h
[8] = tested on: P. aeruginosa ATCC 27853 biofilm formation
[9] = tested on: preformed biofilms of P. aeruginosa ATCC 27853; assay: Biofilm treatment assay on preformed (24-h old) biofilms, CFU counting, alone and with EDTA; format: cell-based, Pseudomonas aeruginosa; conditions: 30 μM peptide + 2.5 mM EDTA
[10] = tested on: S. epidermidis ATCC 35984; conditions: ATCC 35984, 24 h, pH 7.4
P. aeruginosa ATCC 27853 [11] = format: cell-based, Pseudomonas aeruginosa; conditions: pH 7.4
S. aureus ATCC 33591 [12] = format: cell-based, Staphylococcus aureus; conditions: pH 7.4
[13] = tested on: K. pneumoniae ATCC BAA-1706; conditions: ATCC BAA-1706, 24 h, pH 7.4
P. aeruginosa ATCC 27853 [14] = conditions: for FIC index / MIC: ATCC 27853, 24 h

Substance	FIC index (S. aureus ATCC 33591 [1])	MIC (S. aureus ATCC 33591 [1])	Decrease in the number of biofilm-associated viable cells vs untreated biofilms [2]	pIC50 [3]	MBC (S. aureus ATCC 33591 [4])	MBC (P. aeruginosa ATCC 27853 [5])	Reduction of biofilm formation vs untreated control [6]	pIC50 [7]	Inhibitory activity on forming biofilms [8]	Reduction in CFU number of peptide-EDTA combination compared to the peptide used alone [9]	MBC [10]	Time to complete eradication of the starting bacterial inoculum (P. aeruginosa ATCC 27853 [11])	Time to bactericidal effect (reduction of at least 3 Log10 in viable bacteria) (S. aureus ATCC 33591 [12])	MBC [13]	Concentration of the peptide resulting in a synergistic effect (P. aeruginosa ATCC 27853 [14])	FIC index (P. aeruginosa ATCC 27853 [14])	MIC (P. aeruginosa ATCC 27853 [14])	Inhibition of biofilm biomass ([8]; ATCC 27853, 24 h, 24 μM)	Time to bactericidal effect (P. aeruginosa ATCC 27853 [11])
FLPIVGLLKSLLK-NH2 [TB_L1FK]	> 0.5	15 µM	approximately 2 Log10	4.23	6 µM	6 µM	more than 50%	4.28	no inhibitory activity	approximately 1 Log10	1.5 µM	≤ 5 min	≤ 30 min	6 µM	0.25 (15 μM)^b	0.25 (15 μM)^b	120 µM		
KKLLPIVANLLKSLL-NH2 [TB_KKG6A]	> 0.5	7.5 µM	approximately 2 Log10	4.80	1.5 µM	3 µM	more than 50%	4.31		approximately 1 Log10	1.5 µM		≤ 60 min	3 µM	0.25 (3.75 μM)	0.25 (3.75 μM)	30 µM	80%	15 min
